The values that follow come from the supplement of paper PMC10307832.

Holding throughout (assay): relative viability (nuclei count vs DMSO), 5 days (fraction); higher = more cells survive
Compound in the assay “Ruxolitinib + Foretinib”: N#CC[C@H](C1CCCC1)n1cc(-c2ncnc3[nH]ccc23)cn1 [Ruxolitinib] + COc1cc2c(Oc3ccc(NC(=O)C4(C(=O)Nc5ccc(F)cc5)CC4)cc3F)ccnc2cc1OCCCN1CCOCC1 [Foretinib] (partner 0.25 µM)
Put shortly: (§1)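 Five library-drug doses in √10 steps were combined with a fixed anchor-drug dose, or a single drug was given alone, by pin tool to lung cancer cell lines in 1536-well plates the day after seeding. Nuclei were stained and counted after 5 days. Relative viability is the nuclei count in treated wells over that in vehicle wells, taken as the median of duplicate plates.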

Compound in assay [1]: N#CC[C@H](C1CCCC1)n1cc(-c2ncnc3[nH]ccc23)cn1 [Ruxolitinib] + CC(=O)c1c(C)c2cnc(Nc3ccc(N4CCNCC4)cn3)nc2n(C2CCCC2)c1=O [Palbociclib] (partner 0.5 µM)
Put shortly: as §1

Compound in the assay “Vismodegib + OSI-027”: CS(=O)(=O)c1ccc(C(=O)Nc2ccc(Cl)c(-c3ccccn3)c2)c(Cl)c1 [Vismodegib] + COc1cccc2cc(-c3nc([C@H]4CC[C@H](C(=O)O)CC4)n4ncnc(N)c34)[nH]c12 [OSI-027] (partner 0.5 µM)
Put shortly: as §1

Compound in the assay “Ruxolitinib + Pictilisib”: N#CC[C@H](C1CCCC1)n1cc(-c2ncnc3[nH]ccc23)cn1 [Ruxolitinib] + CS(=O)(=O)N1CCN(Cc2cc3nc(-c4cccc5[nH]ncc45)nc(N4CCOCC4)c3s2)CC1 [Pictilisib] (partner 1 µM)
Put shortly: as §1

For HARA, the relative viability with Ruxolitinib + Foretinib (first compound 0.08 µM) is 0.882; with Ruxolitinib + Foretinib (first compound 0.253 µM), 0.851; with Ruxolitinib + Foretinib (first compound 0.8 µM), 1.05; with Ruxolitinib + Foretinib (first compound 2.53 µM) it was 0.879; with Ruxolitinib + Foretinib (first compound 8 µM) it was 0.806; in assay [1] (first compound 0.08 µM), 0.301. Moreover, the relative viability worked out at 0.273 in assay [1] (first compound 0.253 µM); 0.286 in assay [1] (first compound 0.8 µM); 0.228 in assay [1] (first compound 2.53 µM); 0.253 in assay [1] (first compound 8 µM); 0.702 with Vismodegib + OSI-027 (first compound 0.08 µM); 0.47 with Vismodegib + OSI-027 (first compound 0.253 µM). The relative viability in the assay with Vismodegib + OSI-027 (first compound 0.8 µM) was determined as 0.529; in the assay with Vismodegib + OSI-027 (first compound 2.53 µM), 0.492; with Vismodegib + OSI-027 (first compound 8 µM), 0.466; with Ruxolitinib + Pictilisib (first compound 0.08 µM), 0.467; with Ruxolitinib + Pictilisib (first compound 0.253 µM), 0.472; in the assay with Ruxolitinib + Pictilisib (first compound 0.8 µM), 0.404. Moreover, the relative viability with Ruxolitinib + Pictilisib (first compound 2.53 µM) came out at 0.426; with Ruxolitinib + Pictilisib (first compound 8 µM), 0.328.
For HCC-15, the relative viability with Ruxolitinib + Foretinib (first compound 0.08 µM) is 1.04; with Ruxolitinib + Foretinib (first compound 0.253 µM), 0.995; in the assay with Ruxolitinib + Foretinib (first compound 0.8 µM), 1.1; with Ruxolitinib + Foretinib (first compound 2.53 µM), 0.926; with Ruxolitinib + Foretinib (first compound 8 µM), 0.771; in assay [1] (first compound 0.08 µM) it was 0.708. In addition, the relative viability came out at 0.718 in assay [1] (first compound 0.253 µM); 0.759 in assay [1] (first compound 0.8 µM); 0.663 in assay [1] (first compound 2.53 µM); 0.635 in assay [1] (first compound 8 µM); 0.753 with Vismodegib + OSI-027 (first compound 0.08 µM); 0.664 with Vismodegib + OSI-027 (first compound 0.253 µM). The relative viability came to 0.654 in the assay with Vismodegib + OSI-027 (first compound 0.8 µM); 0.738 in the assay with Vismodegib + OSI-027 (first compound 2.53 µM); 0.631 with Vismodegib + OSI-027 (first compound 8 µM); 0.701 with Ruxolitinib + Pictilisib (first compound 0.08 µM); 0.77 in the assay with Ruxolitinib + Pictilisib (first compound 0.253 µM); 0.789 with Ruxolitinib + Pictilisib (first compound 0.8 µM). The relative viability was determined as 0.703 with Ruxolitinib + Pictilisib (first compound 2.53 µM) and 0.737 with Ruxolitinib + Pictilisib (first compound 8 µM).
For the cell line HCC-78, the relative viability was 0.501 in the assay with Ruxolitinib + Foretinib (first compound 0.08 µM); 0.568 with Ruxolitinib + Foretinib (first compound 0.253 µM); 0.599 with Ruxolitinib + Foretinib (first compound 0.8 µM); 0.554 in the assay with Ruxolitinib + Foretinib (first compound 2.53 µM); 0.515 with Ruxolitinib + Foretinib (first compound 8 µM); 0.422 in assay [1] (first compound 0.08 µM). The relative viability in assay [1] (first compound 0.253 µM) turned out to be 0.481; in assay [1] (first compound 0.8 µM), 0.431; in assay [1] (first compound 2.53 µM), 0.507; in assay [1] (first compound 8 µM) it was 0.492; in the assay with Vismodegib + OSI-027 (first compound 0.08 µM), 0.372; in the assay with Vismodegib + OSI-027 (first compound 0.253 µM), 0.371. Besides, the relative viability is 0.382 in the assay with Vismodegib + OSI-027 (first compound 0.8 µM); 0.347 with Vismodegib + OSI-027 (first compound 2.53 µM); 0.347 in the assay with Vismodegib + OSI-027 (first compound 8 µM); 0.162 with Ruxolitinib + Pictilisib (first compound 0.08 µM); 0.14 with Ruxolitinib + Pictilisib (first compound 0.253 µM); 0.207 with Ruxolitinib + Pictilisib (first compound 0.8 µM). The relative viability with Ruxolitinib + Pictilisib (first compound 2.53 µM) turned out to be 0.255; in the assay with Ruxolitinib + Pictilisib (first compound 8 µM), 0.216.
On to HCC-366, for which the relative viability in the assay with Ruxolitinib + Foretinib (first compound 0.08 µM) worked out at 0.934; with Ruxolitinib + Foretinib (first compound 0.253 µM), 0.855; with Ruxolitinib + Foretinib (first compound 0.8 µM) it was 1.07; with Ruxolitinib + Foretinib (first compound 2.53 µM) it was 0.915; with Ruxolitinib + Foretinib (first compound 8 µM), 0.744; in assay [1] (first compound 0.08 µM), 0.417. In addition, the relative viability came to 0.441 in assay [1] (first compound 0.253 µM); 0.389 in assay [1] (first compound 0.8 µM); 0.365 in assay [1] (first compound 2.53 µM); 0.19 in assay [1] (first compound 8 µM); 1.32 in the assay with Vismodegib + OSI-027 (first compound 0.08 µM); 0.888 with Vismodegib + OSI-027 (first compound 0.253 µM). Also, the relative viability with Vismodegib + OSI-027 (first compound 0.8 µM) is 0.77; with Vismodegib + OSI-027 (first compound 2.53 µM), 0.929; with Vismodegib + OSI-027 (first compound 8 µM), 0.775; in the assay with Ruxolitinib + Pictilisib (first compound 0.08 µM), 0.154; in the assay with Ruxolitinib + Pictilisib (first compound 0.253 µM), 0.134; in the assay with Ruxolitinib + Pictilisib (first compound 0.8 µM), 0.161. Besides, the relative viability in the assay with Ruxolitinib + Pictilisib (first compound 2.53 µM) was determined as 0.094; with Ruxolitinib + Pictilisib (first compound 8 µM), 0.101.
With HCC-827, the relative viability in the assay with Ruxolitinib + Foretinib (first compound 0.253 µM) came to 0.764; in the assay with Ruxolitinib + Foretinib (first compound 0.8 µM) it was 0.755; with Ruxolitinib + Foretinib (first compound 2.53 µM) it was 0.918; with Ruxolitinib + Foretinib (first compound 8 µM), 0.811; in assay [1] (first compound 0.253 µM) it was 0.275; in assay [1] (first compound 0.8 µM) it was 0.408. For the same cell line, the relative viability amounted to 0.366 in assay [1] (first compound 2.53 µM); 0.411 in assay [1] (first compound 8 µM); 0.759 with Vismodegib + OSI-027 (first compound 0.08 µM); 0.708 with Vismodegib + OSI-027 (first compound 0.253 µM); 0.726 in the assay with Vismodegib + OSI-027 (first compound 0.8 µM); 0.767 in the assay with Vismodegib + OSI-027 (first compound 2.53 µM). The relative viability in the assay with Vismodegib + OSI-027 (first compound 8 µM) came to 0.789; with Ruxolitinib + Pictilisib (first compound 0.08 µM), 0.654; with Ruxolitinib + Pictilisib (first compound 0.253 µM) it was 0.973; in the assay with Ruxolitinib + Pictilisib (first compound 0.8 µM), 0.919; with Ruxolitinib + Pictilisib (first compound 2.53 µM) it was 0.906; in the assay with Ruxolitinib + Pictilisib (first compound 8 µM) it was 0.944.
On to HOP-62, for which the relative viability with Ruxolitinib + Foretinib (first compound 0.08 µM) is 1.16; in the assay with Ruxolitinib + Foretinib (first compound 0.253 µM) it was 1.07; in the assay with Ruxolitinib + Foretinib (first compound 0.8 µM), 1.16; with Ruxolitinib + Foretinib (first compound 2.53 µM), 1.11; with Ruxolitinib + Foretinib (first compound 8 µM), 1.09; in assay [1] (first compound 0.08 µM) it was 0.454. In addition, the relative viability in assay [1] (first compound 0.253 µM) was 0.451; in assay [1] (first compound 0.8 µM) it was 0.45; in assay [1] (first compound 2.53 µM), 0.435; in assay [1] (first compound 8 µM), 0.411; with Vismodegib + OSI-027 (first compound 0.08 µM), 0.841; with Vismodegib + OSI-027 (first compound 0.253 µM), 0.812. The relative viability amounted to 0.793 with Vismodegib + OSI-027 (first compound 0.8 µM); 0.8 with Vismodegib + OSI-027 (first compound 2.53 µM); 0.899 with Vismodegib + OSI-027 (first compound 8 µM); 0.743 in the assay with Ruxolitinib + Pictilisib (first compound 0.253 µM); 0.876 in the assay with Ruxolitinib + Pictilisib (first compound 0.8 µM); 0.63 with Ruxolitinib + Pictilisib (first compound 2.53 µM). Besides, in the assay with Ruxolitinib + Pictilisib (first compound 8 µM), the relative viability was found to be 0.839.
As to LC-2-ad, the relative viability in the assay with Ruxolitinib + Foretinib (first compound 0.253 µM) was 0.743; with Ruxolitinib + Foretinib (first compound 0.8 µM), 0.977; with Ruxolitinib + Foretinib (first compound 2.53 µM) it was 0.746; in the assay with Ruxolitinib + Foretinib (first compound 8 µM), 0.64; in assay [1] (first compound 0.08 µM) it was 0.544; in assay [1] (first compound 0.253 µM) it was 0.511. Besides, the relative viability in assay [1] (first compound 0.8 µM) was 0.533; in assay [1] (first compound 2.53 µM), 0.473; in assay [1] (first compound 8 µM) it was 0.409; with Vismodegib + OSI-027 (first compound 0.08 µM), 0.975; with Vismodegib + OSI-027 (first compound 0.253 µM), 0.786; with Vismodegib + OSI-027 (first compound 0.8 µM) it was 0.824. Besides, the relative viability turned out to be 0.809 with Vismodegib + OSI-027 (first compound 2.53 µM); 0.676 with Vismodegib + OSI-027 (first compound 8 µM); 0.41 with Ruxolitinib + Pictilisib (first compound 0.08 µM); 0.313 with Ruxolitinib + Pictilisib (first compound 0.253 µM); 0.519 with Ruxolitinib + Pictilisib (first compound 0.8 µM); 0.362 in the assay with Ruxolitinib + Pictilisib (first compound 2.53 µM). Besides, the relative viability with Ruxolitinib + Pictilisib (first compound 8 µM) was 0.211.
